Laboratory results reported in ChEMBL document CHEMBL1201862, “PubChem BioAssay data set” (2004).
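96-well plates; 48 h exposure; 5 concentrations. Endpoints by linear interpolation between flanking doses. Not reached: highest tested concentration assigned. GI50 is the concentration that inhibits growth by half.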 The source made the active and inactive calls. Rule as the data show it: active = GI50 up to about 1.1 µM and inactive = higher.

How the values were obtained:
Experiment in all cases: growth of human tumour cells (NCI), 48 h
[1] = system: A549
[2] = system: CCRF-CEM
[3] = system: HCT-116
[4] = system: HCT-15
[5] = system: HOP-62
[6] = system: MOLT-4
[7] = system: Malme-3M
[8] = system: NCI-H23
[9] = system: OVCAR-5
[10] = system: SF-295
[11] = system: SK-MEL-2
[12] = system: SK-MEL-5
[13] = system: SK-OV-3
[14] = system: SN12C
[15] = system: SNB-19
[16] = system: U-251
[17] = system: NCI-H522
[18] = system: SR

SMILES	GI50 [1]	GI50 [2]	GI50 [3]	GI50 [4]	GI50 [5]	GI50 [6]	GI50 [7]	GI50 [8]	GI50 [9]	GI50 [10]	GI50 [11]	GI50 [12]	GI50 [13]	GI50 [14]	GI50 [15]	GI50 [16]	GI50 [17]	GI50 [18]
COc1cccc(NC(=O)C(=O)C(C(C)=O)c2nc3ccc(Cl)cc3nc2O)c1 (configuration not stated)	> 100 µM (inactive)	> 100 µM (inactive)	> 100 µM (inactive)	> 100 µM	> 100 µM (inactive)	> 100 µM (inactive)	> 100 µM (inactive)	> 100 µM (inactive)	> 100 µM (inactive)	> 100 µM (inactive)	> 100 µM (inactive)	> 100 µM (inactive)	> 100 µM (inactive)	> 100 µM (inactive)	> 100 µM (inactive)	> 100 µM (inactive)		
Nc1ncnc2c1nnn2C1C=C(CO)C(O)C1O (configuration not stated)	58.1 µM (inactive)	50.7 µM (inactive)	27.8 µM (inactive)	26.6 µM	> 92 µM (inactive)	> 100 µM (inactive)	> 100 µM (inactive)	> 78.9 µM (inactive)	48.3 µM (inactive)	> 100 µM (inactive)	> 60 µM (inactive)	> 100 µM (inactive)	> 100 µM (inactive)	33 µM (inactive)	> 100 µM (inactive)	> 100 µM (inactive)	> 100 µM (inactive)	
CC(=O)OCC1OC(n2cc(F)c(=O)[nH]c2=O)C(NC(=O)N(CCCl)N=O)C(OC(C)=O)C1OC(C)=O (configuration not stated)	89.7 µM (inactive)	> 100 µM (inactive)	> 100 µM (inactive)		> 100 µM (inactive)	87.1 µM (inactive)	> 100 µM (inactive)	> 100 µM (inactive)		43.1 µM (inactive)		> 100 µM (inactive)	> 100 µM (inactive)	> 100 µM (inactive)	> 100 µM (inactive)	88.9 µM (inactive)	> 100 µM (inactive)	97.9 µM (inactive)
O=C1CCC(=O)c2sccc2N1	> 100 µM (inactive)	> 100 µM (inactive)	> 100 µM (inactive)	> 100 µM	> 100 µM (inactive)	> 100 µM (inactive)	> 100 µM (inactive)	> 100 µM (inactive)	> 100 µM (inactive)	> 100 µM (inactive)	> 100 µM (inactive)	> 100 µM (inactive)	> 100 µM (inactive)	> 100 µM (inactive)	> 100 µM (inactive)	> 100 µM (inactive)	> 100 µM (inactive)	
O=C(C(=O)c1ccc(Cc2ccc(C(=O)C(=O)c3ccccc3)cc2)cc1)c1ccccc1	> 100 µM (inactive)	61.5 µM (inactive)	> 100 µM (inactive)	> 100 µM	> 100 µM (inactive)		> 100 µM (inactive)	> 100 µM (inactive)	> 100 µM (inactive)	> 100 µM (inactive)	> 100 µM (inactive)	> 100 µM (inactive)	> 100 µM (inactive)	> 100 µM (inactive)	> 100 µM (inactive)	> 100 µM (inactive)	> 100 µM (inactive)	
O=C(N/C(=C\c1ccccc1O)c1nc2ccccc2[nH]1)c1ccccc1	> 100 µM (inactive)	> 100 µM (inactive)	89.7 µM (inactive)	> 100 µM	79.6 µM (inactive)	> 100 µM (inactive)	> 100 µM (inactive)	40.6 µM (inactive)	> 100 µM (inactive)		74.1 µM (inactive)	95.7 µM (inactive)	36.1 µM (inactive)	89.7 µM (inactive)	39.7 µM (inactive)	> 100 µM (inactive)	45.2 µM (inactive)	
CC1(C)COC(c2cccc3c2C(=O)c2cccc(Cl)c2-3)=N1	58.1 µM (inactive)	43 µM (inactive)		56.4 µM		29.2 µM (inactive)	84.7 µM (inactive)	52.5 µM (inactive)	> 100 µM (inactive)	48.4 µM (inactive)	> 100 µM (inactive)	25.3 µM (inactive)	48.8 µM (inactive)	74 µM (inactive)	21.1 µM (inactive)	68.4 µM (inactive)	31.8 µM (inactive)	
COc1cc(/C=C(\C#N)C(=O)c2ccccc2)ccc1OCc1ccccc1	> 100 µM (inactive)	> 100 µM (inactive)	> 100 µM (inactive)	> 100 µM	> 100 µM (inactive)	> 100 µM (inactive)		> 100 µM (inactive)	> 100 µM (inactive)	> 100 µM (inactive)	> 100 µM (inactive)	> 100 µM (inactive)	> 100 µM (inactive)	> 100 µM (inactive)	> 100 µM (inactive)		> 100 µM (inactive)	> 100 µM (inactive)
CS/C(=N/C#N)NCCc1c[nH]c2ccccc12	> 100 µM (inactive)	48.2 µM (inactive)	> 100 µM (inactive)	> 100 µM	> 100 µM (inactive)	80.7 µM (inactive)		> 100 µM (inactive)	> 100 µM (inactive)	> 100 µM (inactive)		76 µM (inactive)	> 100 µM (inactive)	> 100 µM (inactive)	> 100 µM (inactive)	> 100 µM (inactive)		60.3 µM (inactive)
CN(C)c1ccc(-c2nc(N)nc3c2CCCC3)cc1	52.8 µM (inactive)	50.5 µM (inactive)	38.3 µM (inactive)		99.1 µM (inactive)	30.2 µM (inactive)	46.1 µM (inactive)	64.7 µM (inactive)	> 100 µM (inactive)	38.5 µM (inactive)	56.8 µM (inactive)	34.7 µM (inactive)	> 100 µM (inactive)	37.9 µM (inactive)	> 100 µM (inactive)	53.7 µM (inactive)	25.2 µM (inactive)	
CCOC(=O)C1=NC(c2ccccc2)(c2ccccc2)OC1=C(Cl)Cl	54.6 µM (inactive)	33.6 µM (inactive)	29.2 µM (inactive)	70.1 µM	> 100 µM (inactive)	36 µM (inactive)	40 µM (inactive)	> 100 µM (inactive)	96.2 µM (inactive)	> 100 µM (inactive)		39.5 µM (inactive)	> 100 µM (inactive)	> 100 µM (inactive)	> 100 µM (inactive)	74.6 µM (inactive)	23.1 µM (inactive)	19.8 µM (inactive)
CCOc1ccc(NC(=O)C2=C(C)NC(C)=C(C(=O)Nc3ccc(OCC)cc3)C2c2ccccc2)cc1	> 100 µM (inactive)	31.3 µM (inactive)			> 100 µM (inactive)	44.8 µM (inactive)	> 100 µM (inactive)	> 100 µM (inactive)	> 100 µM (inactive)	> 100 µM (inactive)	56.8 µM (inactive)	74.3 µM (inactive)	> 100 µM (inactive)	> 100 µM (inactive)	> 100 µM (inactive)	> 100 µM (inactive)	38.3 µM (inactive)	
CC1(C)CCC[C@@]2(C)C1CCC1(C)C(CCc3ccoc3)/C(=C/OS(=O)(=O)O)CCC12 (some centres not stated)	> 100 µM (inactive)	25.4 µM (inactive)	16.5 µM (inactive)	49.5 µM	> 100 µM (inactive)	23.6 µM (inactive)	> 100 µM (inactive)	50.4 µM (inactive)	> 100 µM (inactive)	49.9 µM (inactive)	58.5 µM (inactive)	> 100 µM (inactive)	71.9 µM (inactive)	> 100 µM (inactive)	> 100 µM (inactive)	57.5 µM (inactive)		23.1 µM (inactive)
O=S(O)CCCSSc1ccccc1	25.5 µM (inactive)	7.67 µM (inactive)	37.7 µM (inactive)	35.5 µM	57.7 µM (inactive)	17.5 µM (inactive)	67 µM (inactive)	66.7 µM (inactive)	> 100 µM (inactive)	53.2 µM (inactive)	74.6 µM (inactive)	22.5 µM (inactive)	99.3 µM (inactive)	25.6 µM (inactive)	96.8 µM (inactive)	26.4 µM (inactive)	18.3 µM (inactive)	
O=C1OC(OCC#CCOC2OC(=O)C(Cl)=C2Cl)C(Cl)=C1Cl (configuration not stated)	18.4 µM (inactive)	1.92 µM (inactive)	10.2 µM (inactive)	5.85 µM	13.6 µM (inactive)	2.43 µM (inactive)		15.6 µM (inactive)	16.6 µM (inactive)	20.7 µM (inactive)	15.8 µM (inactive)	18.2 µM (inactive)		17.3 µM (inactive)	16.1 µM (inactive)		1.7 µM (inactive)	2 µM (inactive)
CCCc1c(C(=O)OCC)[nH]c(C(=O)CCC(=O)c2[nH]c(C(=O)OCC)c(CCC)c2C(=O)OCC)c1C(=O)OCC	> 100 µM (inactive)	> 100 µM (inactive)	> 100 µM (inactive)	> 100 µM		> 100 µM (inactive)	> 100 µM (inactive)	> 100 µM (inactive)	> 100 µM (inactive)	> 100 µM (inactive)	68.9 µM (inactive)	> 100 µM (inactive)	> 100 µM (inactive)	> 100 µM (inactive)	> 100 µM (inactive)	> 100 µM (inactive)	> 100 µM (inactive)	> 100 µM (inactive)
CC(=O)C1C(c2ccc(N(C)C)cc2)c2cc3c(cc2OC1(C)O)OCO3 (configuration not stated)	37.6 µM (inactive)	32.5 µM (inactive)	39.8 µM (inactive)	41.3 µM	> 100 µM (inactive)	32.1 µM (inactive)	53 µM (inactive)	59 µM (inactive)		28.7 µM (inactive)	33.3 µM (inactive)	30.8 µM (inactive)	55.3 µM (inactive)	40.1 µM (inactive)	75.7 µM (inactive)	52.7 µM (inactive)		
